Like-named read-outs stand apart in the source and are kept apart here.
Biological target: Human recombinant Histone Deacetylase 8 (HDAC8) (Homo sapiens (Human), UniProt Q9BY41)
Test: HDAC8 Enzymatic Assay (HDAC-Glo I/II luminescence)
Type: biochemical
Experimental: HDAC-Glo™ I/II Assay Kit was purchased from Promega Corporation (Madison, Wis.), including the following components: HDAC-Glo I/II Buffer (25 mM Tris buffer, pH 8.0, supplemented with 137 mM: NaCl, 2.7 mM KCl, 1% v/v Triton X-100 and 1 mM: MgCl2), luminogenic substrates Boc-GAK(Ac)-aminoluciferin (HDAC-Glo I/II substrate), proprietary developer reagent (containing trypsin). Human recombinant Histone Deacetylase 8 (HDAC8) was purchased from Enzo Life Sciences (Plymouth Meeting, Pa.).
The HDAC8 reaction was performed at room temperature in white 384-well polystyrene, flat-bottom microtiter plate (Greiner Bio-one, Monroe, N.C.) in a final volume of 20 μL. Test compounds were first diluted serially in DMSO and 100 nL were transferred to the plate wells by Echo 550 (Labcyte, Sunnyvale, Calif.) before the addition of other reaction components. The final concentration of DMSO in the assay was 0.5%. The HDAC-Glo I/II assay reagent was prepared by rehydration of lyophilized HDAC-Glo I/II substrate in 10 mL. HDAC-Glo I/II assay buffer followed with the addition of 10 μL of developer reagent. 10 uL of 3 nM HDAC8 in the HDAC-Glo I/II assay buffer were first dispensed into the microliter plate containing the compounds and incubated at room temperature for 30 min. The reactions were initiated with the addition of 10 uL HDAC-Glo I/II assay reagent with Multidrop (Thermo, Waltham, Mass.). The final concentration of HDAC8 and HDAC-Glo I/II substrate in the reaction were 1.5 nM and 50 μM, respectively. The assay plate was mixed for 1 min by orbital shaking (500 rpm) and centrifuged for 1 min at 1500 rpm. After 15 min at room temperature, luminescence signals were measured on TopCount (Perkin Elmer). Wells with no compound served as the positive controls and wells containing no HDAC8 were used as negative controls. IC50 determination was performed by fitting the curve of percentage control activity versus the log of the compound concentration using the GraphPad Prism 6.0 software.

[1] = class symbols, Table 14, read-out: HDAC8 IC50

Human recombinant Histone Deacetylase 8 (HDAC8), sequence (Q9BY41 whole entry): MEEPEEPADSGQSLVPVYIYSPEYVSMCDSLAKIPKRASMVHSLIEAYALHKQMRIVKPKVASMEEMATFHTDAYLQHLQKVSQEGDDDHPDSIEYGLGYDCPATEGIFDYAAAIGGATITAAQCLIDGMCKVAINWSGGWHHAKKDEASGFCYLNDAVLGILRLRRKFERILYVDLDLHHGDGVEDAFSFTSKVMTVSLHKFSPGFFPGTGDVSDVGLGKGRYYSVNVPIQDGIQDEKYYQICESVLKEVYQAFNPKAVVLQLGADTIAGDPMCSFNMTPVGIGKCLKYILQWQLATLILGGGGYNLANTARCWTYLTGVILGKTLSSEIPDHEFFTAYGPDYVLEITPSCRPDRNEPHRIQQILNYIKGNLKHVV

Compound	IC50 [1]	IC50 (HDAC8, read-out: IC50)
Cc1cccc2c1cnn2C(Cc1ccccc1)C(=O)NO (centres unmarked) [Compound I-0084, N-hydroxy-2-(4-methyl-1H-indazol-1-yl)-3-phenylpropanamide]	> 500 nM	–
Cc1ccc2cn(C(Cc3ccccc3)C(=O)NO)nc2c1 (centres unmarked) [Compound I-0040, N-hydroxy-2-(6-methyl-2H-indazol-2-yl)-3-phenylpropanamide]	> 500 nM	–
O=C(NO)C(Cc1ccccc1)n1ncc2cc(-c3cncnc3)cnc21 (centres unmarked) [Compound I-0121, N-hydroxy-3-phenyl-2-(5-(pyrimidin-5-yl)-1H-pyrazolo[3,4-b]pyridin-1-yl)propanamide]	200 to 500 nM	–
O=C(NCCC1CCOCC1)c1cccc2c(C#CC3CC3)n(C(Cc3ccccc3)C(=O)NO)nc12 (centres unmarked) [Compound I-0197, 2-[1-Benzyl-2-(hydroxyamino)-2-oxethyl]-3-(cyclopropylethynyl)-N-[2-(tetrahydro-2H-pyran-4-yl)ethyl]-2H-indazole-7-carboxamide]	≤ 50 nM	16 nM
Cn1nc(C(Cc2ccccc2)C(=O)NO)c2ccc(-c3ccncc3)cc21 (centres unmarked) [Compound I-0205, N-hydroxy-2-(1-methyl-6-(pyridin-4-yl)-1H-indazol-3-yl)-3-phenylpropanamide]	50 to 200 nM	–
N#Cc1cccc(-c2cnc3c(cnn3C(Cc3ccccc3)C(=O)NO)c2)c1 (centres unmarked) [Compound I-0130, 2-(5-(3-cyanophenyl)-1H-pyrazolo[3,4-b]pyridin-1-yl)-N-hydroxy-3-phenylpropanamide]	> 500 nM	–
CN1CCN(c2ccc(-c3ccn4c(C(Cc5ccccc5)C(=O)NO)cnc4c3)cn2)CC1 (centres unmarked) [Compound I-0152, N-hydroxy-2-(7-(6-(4-methylpiperazin-1-yl)pyridin-3-yl)imidazo[1,2-a]pyridin-3-yl)-3-phenylpropanamide]	200 to 500 nM	–
O=C(NO)C(Cc1ccccc1)n1cc2ccc(N3CCCCC3)cc2n1 (centres unmarked) [Compound I-0052, N-hydroxy-3-phenyl-2-(6-(piperidin-1-yl)-2H-indazol-2-yl)propanamide]	> 500 nM	–
N/C(=N\O)c1ccc(-c2ccc3nn(C(Cc4ccccc4)C(=O)NO)cc3c2)cc1 (centres unmarked) [Compound I-0033, (Z)-N-hydroxy-2-(5-(4-(N′-hydroxy-carbamimidoyl)phen-yl)-2H-indazol-2-yl)-3-phenylpropanamide]	50 to 200 nM	–
O=C(NO)C(Cc1ccccc1)c1cnc2c(Cl)cccn12 (centres unmarked) [Compound I-0134, 2-(8-Chloroimidazo[1,2-a]pyridin-3-yl)-N-hydroxy-3-phenylpropanamide]	200 to 500 nM	258 nM
CCc1ccc2c(cnn2C(Cc2ccccc2)C(=O)NO)c1 (centres unmarked) [Compound I-0020, 2-(5-ethyl-1H-indazol-1-yl)-N-hydroxy-3-phenylpropanamide]	200 to 500 nM	–
O=C(NO)C(Cc1ccccc1)c1cnc2c(C3CC3)cccn12 (centres unmarked) [Compound I-0170, 2-(8-cyclopropylimidazo[1,2-a]pyridin-3-yl)-N-hydroxy-3-phenylpropanamide]	> 500 nM	–
O=C(NO)C(Cc1ccccc1)n1ncc2c(-c3ccncc3)nccc21 (centres unmarked) [Compound I-0070, N-hydroxy-3-phenyl-2-(4-(pyridin-4-yl)-1H-pyrazolo[4,3-c]pyridin-1-yl)propanamide]	50 to 200 nM	–
O=C(NO)C(Cc1ccccc1)n1cc2cccc(C#CC3CC3)c2n1 (centres unmarked) [Compound I-0082, 2-(7-(Cyclopropylethynyl)-2H-indazol-2-yl)-N-hydroxy-3-phenylpropanamide]	200 to 500 nM	–
O=C(NO)C(Cc1ccccc1)n1ncc2ccc(-c3cncnc3)cc21 (centres unmarked) [Compound I-0023, N-hydroxy-3-phenyl-2-(6-(pyrimidin-5-yl)-1H-indazol-1-yl)propanamide]	> 500 nM	–
O=C(NO)C(Cc1ccccc1)n1ccc2nc(Cl)ccc21 (centres unmarked) [Compound I-0193, 2-(5-chloro-1H-pyrrolo[3,2-b]pyridin-1-yl)-N-hydroxy-3-phenylpropanamide]	> 500 nM	–
O=C(NO)C(Cc1ccccc1)n1cc2ccnc(-c3cncnc3)c2n1 (centres unmarked) [Compound I-0198, N-hydroxy-3-phenyl-2-(7-(pyrimidin-5-yl)-2H-pyrazolo[3,4-c]pyridin-2-yl)propanamide]	≤ 50 nM	–
O=C(NO)C(Cc1ccccc1)n1cc2cccc(CN3CCC(N4CCOCC4)CC3)c2n1 (centres unmarked) [Compound I-0185, N-hydroxy-2-(7-((4-morpholinopiperidin-1-yl)methyl)-2H-indazol-2-yl)-3-phenylpropanamide]	> 500 nM	–

Compound	IC50 [1]	IC50 (HDAC8, read-out: IC50)
COC(=O)C(Cc1ccccc1)n1cc2cccc(C(=O)N3CCC(F)(F)CC3)c2n1 (centres unmarked) [Compound I-0172, methyl 2-(7-(4,4-difluoropiperidine-1-carbonyl)-2H-indazol-2-yl)-3-phenylpropanoate]	200 to 500 nM	–
NC(=O)c1ccc(-c2cccc3c2cnn3C(Cc2ccccc2)C(=O)NO)cc1 (centres unmarked) [Compound I-0080, 4-(1-(1-(hydroxyamino)-1-oxo-3-phenylpropan-2-yl)-1H-indazol-4-yl)benzamide]	> 500 nM	–
O=C(NO)C(Cc1ccccc1)n1ncc2ccc(Br)cc21 (centres unmarked) [Compound I-0021, 2-(6-bromo-1H-indazol-1-yl)-N-hydroxy-3-phenylpropanamide]	> 500 nM	–
O=C(NO)C(Cc1ccccc1)n1ncc2cc(-c3cncnc3)ncc21 (centres unmarked) [Compound I-0092, N-hydroxy-3-phenyl-2-(5-(pyrimidin-5-yl)-1H-pyrazolo[3,4-c]pyridin-1-yl)propanamide]	200 to 500 nM	–
NC(=O)c1cccc(-c2cccc3c(C#CC4CC4)n(C(Cc4ccccc4)C(=O)NO)nc23)c1 (centres unmarked) [Compound I-0157, 3-(3-(cyclopropylethynyl)-2-(1-(hydroxyamino)-1-oxo-3-phenylpropan-2-yl)-2H-indazol-7-yl)benzamide]	≤ 50 nM	–
CN(C)C(=O)c1ccc(-c2ccc3c(cnn3C(Cc3ccccc3)C(=O)NO)c2)cc1 (centres unmarked) [Compound I-0106, 4-(1-(1-(hydroxyamino)-1-oxo-3-phenylpropan-2-yl)-1H-indazol-5-yl)-N,N-dimethylbenzamide]	200 to 500 nM	–
O=C(NO)C(Cc1ccccc1)n1ncc2cc(Br)ncc21 (centres unmarked) [Compound I-0099, 2-(5-bromo-1H-pyrazolo[3,4-c]pyridin-1-yl)-N-hydroxy-3-phenylpropanamide]	> 500 nM	–
Cc1ccc2c(cnn2C(Cc2ccccc2)C(=O)NO)n1 (centres unmarked) [Compound I-0075, N-hydroxy-2-(5-methyl-1H-pyrazolo[4,3-b]pyridin-1-yl)-3-phenylpropanamide]	200 to 500 nM	–
CN1CCN(Cc2cccc3cn(C(Cc4ccccc4)C(=O)NO)nc23)CC1=O (centres unmarked) [Compound I-0192, N-hydroxy-2-(7-((4-methyl-3-oxopiperazin-1-yl)methyl)-2H-indazol-2-yl)-3-phenylpropanamide]	50 to 200 nM	–
CN(C)C(=O)c1ccc(-c2cccn3c(C(Cc4ccccc4)C(=O)NO)cnc23)cc1 (centres unmarked) [Compound I-0168, 4-(3-(1-(hydroxyamino)-1-oxo-3-phenylpropan-2-yl)imidazo[1,2-a]pyridin-8-yl)-N,N-dimethylbenzamide]	> 500 nM	–
O=C(NO)C(Cc1ccccc1)n1cc2cccc(CN3CCCC(F)(F)C3)c2n1 (centres unmarked) [Compound I-0190, 2-(7-((3,3-difluoropiperidin-1-yl)methyl)-2H-indazol-2-yl)-N-hydroxy-3-phenylpropanamide]	200 to 500 nM	–
Cn1nccc1-c1nccc2c1cnn2C(Cc1ccccc1)C(=O)NO (centres unmarked) [Compound I-0069, N-hydroxy-2-(4-(1-methyl-1H-pyrazol-5-yl)-1H-pyrazolo[4,3-c]pyridin-1-yl)-3-phenylpropanamide]	50 to 200 nM	–
Cn1cc(-c2cc3cnn(C(Cc4ccccc4)C(=O)NO)c3cn2)cn1 (centres unmarked) [Compound I-0091, N-hydroxy-2-(5-(1-methyl-1H-pyrazol-4-yl)-1H-pyrazolo[3,4-c]pyridin-1-yl)-3-phenylpropanamide]	> 500 nM	–
O=C(NO)C(Cc1ccccc1)n1ncc2c(Cl)nccc21 (centres unmarked) [Compound I-0055, 2-(4-chloro-1H-pyrazolo[4,3-c]pyridin-1-yl)-N-hydroxy-3-phenylpropanamide]	200 to 500 nM	–
O=C(NO)C(Cc1ccccc1)n1nc(I)c2ccnc(Cl)c21 (centres unmarked) [Compound I-0124, 2-(7-chloro-3-iodo-1H-pyrazolo[3,4-c]pyridin-1-yl)-N-hydroxy-3-phenylpropanamide]	50 to 200 nM	–
Cn1nccc1-c1ccc2cn(C(Cc3ccccc3)C(=O)NO)nc2c1 (centres unmarked) [Compound I-0047, N-hydroxy-2-(6-(1-methyl-1H-pyrazol-5-yl)-2H-indazol-2-yl)-3-phenylpropanamide]	200 to 500 nM	–
O=C(NO)C(Cc1ccccc1)n1ncc2nc(-c3cncnc3)ccc21 (centres unmarked) [Compound I-0074, N-hydroxy-3-phenyl-2-(5-(pyrimidin-5-yl)-1H-pyrazolo[4,3-b]pyridin-1-yl)propanamide]	50 to 200 nM	–
Cc1nn(C)c(C)c1-c1ccc2c(cnn2C(Cc2ccccc2)C(=O)NO)c1 (centres unmarked) [Compound I-0103, N-hydroxy-3-phenyl-2-(5-(1,3,5-trimethyl-1H-pyrazol-4-yl)-1H-indazol-1-yl)propanamide]	200 to 500 nM	–

Source: US10723705B2, “Heterocyclic compounds and uses thereof” (Incyte Corporation, priority 2015, dated 2020)
